Columns and labels:
GABAA receptor [1] = experiment: Experiment 2: regeneration of GABAA receptor responses in reactive astrocytes; assay type: cell-based, rat; settings: 14 DIV after serial passages, control 8 ± 6
Experimental: (§1) Preparation of astrocyte cultures: After removing the meninges, isolated cerebrum of neonatal rats (age: day 1) were placed on frosted glass-slides and minced. The sample was then digested with trypsin (0.25%) and DNase 1 (0.02%) and suspended in 10% FCS-DMEM before centrifugation. After resuspending in 10% FCS-DMEM, the suspension was dispersed in dishes and cultured at 37° C. under 5% CO2 atmosphere. Non-adherent cells were removed from the dishes after agitation/washing on post-culture 24 hours. Note that the adherent cell population was composed of more than 95% of GFAP-positive cells.
(§2) GFAP contents and GABAA receptor responses: The improvement effects on astrocyte functions were evaluated from the following indices: inhibition derived from the increase in GFAP content and inhibition in the disappearance of GABAA receptor responses. Thus, sodium valproate (Sigma Chem. Co., U.S.A.) was added on 1 DIV followed by whole-cell mode voltage-clamp method on 7 DIV-to measure the GABA (3×10^−5 M)-induced Cl^− current. The Cl^− current was taken as an index for the GABA response. Furthermore, GFAP contents were determined by the ELISA method on 11 DIV.
Astrocytes were prepared and cultured in a manner similar to Experiment 1. On 14 DIV, reactive astrocytes were subjected to a serial passage (10^5 cells/dish). The thus adherent reactive astrocytes were washed, and transferred to culture media containing the present effectively developed compound(s) or invention. On 14 DIV after serial passages, GABAA receptor responses were tested according to procedures designated in Experiment 1.

[2] = test system: experimental brain ischemia model; experiment: Experiment 4: experimental brain ischemia, conditional avoidance experiment; assay type: in vivo, rat; settings: 300 mg/kg i.p. once daily for 4 days after deligation; 10 trials within 2 days; ischemic reference 2.8±0.8, normal 6.1±0.7, sham 4.8±0.8
Experimental: Establishing the experimental brain ischemia model: Vertebral arteries of pentobarbital-anesthetized rats were bilaterally coagulated, and a period of 7 days was allowed for recovery. The previously surgically exposed bilateral common carotid arteries of ischemic rats were mechanically ligated for 20 min. Immediately after deligation, the rats were once daily injected i.p. with sodium valproate (300 mg/kg) for 4 consecutive days. On deligation day 5˜6, mobility aspects in the conditional avoidance experiment were monitored.
Mobility aspects of the conditional avoidance experiment: The step-up model of the dark/light box was used. Animals placed in the dark section of the grid-floored box with the connecting door closed were allowed to accustomed to the environment for 1 minute. The door was then opened for 10 seconds. Rats that stepped up to the lighted section via the opened door were considered positive in the conditional avoidance test. Animals categorized as negative in the test were placed in the dark section with the door closed for 10 seconds prior to subjecting them to electric foot shock at 2 mA for 50 seconds. […] The above procedure was repeated 5 trials per day at 30-minutes intervals. A total of 10 trials within 2 days were attempted.

GABAA receptor [3] = experiment: Experiment 1: GABAA receptor responses of cultured astrocytes (GABA-induced Cl- current, whole-cell voltage-clamp); assay type: cell-based, rat; settings: added on 1 DIV, measured on 7 DIV, GABA 3×10^−5 M-induced Cl− current, control 90 ± 43
Experimental: as §1, §2

neurons = experiment: Experiment 3: suppression of cell death in neurons-astrocytes co-culture; assay type: cell-based, rat; settings: 3 mM, neurons co-cultured with astrocytes
Experimental: Astrocytes, prepared in a manner similar to that of Experiment 1, were cultured for 14 days. Previously prepared neurons (3×10^4 cells/well), isolated from cerebrum of 19-day old fetus rats, were added to the cultured astrocytes (3×10^5 cells/well) and allowed to grow. During the culture process, survival rates and neuronal dendrite extension/ramification of neurons were observed. Note that, sodium valproate (3 mM) and astrocytes were initially added to the neurons concomitantly, and freshly prepared similar culture media containing the invented compound (3 mM) were subsequently added at 3˜4-day intervals.

astrocytes = experiment: Experiment 1: GFAP contents of cultured astrocytes (ELISA); assay type: cell-based, rat; settings: added on 1 DIV, ELISA on 11 DIV, ratio of the control group (control 100.0)
Experimental: as §1, §2
The GFAP contents were expressed as a ratio of the control group.

| Structure (SMILES) | GABAA receptor responses (means ± S.E.) (GABAA receptor [1]; 0.3 mM) | GABAA receptor responses (means ± S.E.) (GABAA receptor [1]; 1.0 mM) | GABAA receptor responses (means ± S.E.) (GABAA receptor [1]; 3.0 mM) | other results |
| --- | --- | --- | --- | --- |
| CCCC[C@@H](CC)C(=O)O (racemic) [Example 11] | 35 ± 15 pA | 190 ± 134 pA | 281 ± 174 pA |  |
| CCCC(CCCCCC(F)F)C(=O)[O-].[Na+] (centres unmarked) [Example 2(2)] | 527 ± 201 pA |  |  | GABAA receptor responses (means ± S.E.) (GABAA receptor [1]; 0.1 mM): 114 ± 81 pA |
| CCCC(CCCF)C(=O)[O-].[Na+] (centres unmarked) [Example 2(5)] |  |  | 326 ± 148 pA |  |
| CCCC(CCCCF)C(=O)[O-].[Na+] (centres unmarked) [Example 2(6)] | 184.0 ± 118.1 pA |  | 528.0 ± 160.2 pA |  |
| CCCC(CCCC(F)(F)F)C(=O)[O-].[Na+] (centres unmarked) [Example 2(8)] |  | 470.6 ± 124.9 pA | 808.6 ± 325.4 pA |  |
| CCCC(CCCCCC(F)(F)F)C(=O)[O-].[Na+] (centres unmarked) [Example 2(9)] | 236.4 ± 85.5 pA |  |  |  |
| CCCC(CCCCC(F)(F)F)C(=O)[O-].[Na+] (centres unmarked) [Example 2(10)] | 800.0 ± 415.6 pA |  |  |  |
| CCCC(CCC(F)(F)F)C(=O)[O-].[Na+] (centres unmarked) [Example 2(12)] |  | 672 ± 242 pA | 1109 ± 227 pA |  |
| CCCCCCCC(CCC)C(=O)O (centres unmarked) [Example 2-PNA, 2-propylnonanic acid] | 380 ± 124 pA |  |  | GABAA receptor responses (means ± S.E.) (GABAA receptor [1]; 0.03 mM): 85 ± 41 pA; GABAA receptor responses (means ± S.E.) (GABAA receptor [1]; 0.1 mM): 107 ± 50 pA |
| CCCC(CCCCC(F)F)C(=O)[O-].[Na+] (centres unmarked) [Example 2] | 193 ± 103 pA | 628 ± 227 pA |  |  |
| CCCC(CCCCCCF)C(=O)[O-].[Na+] (centres unmarked) [Example 7(1)] | 260.0 ± 47.3 pA |  |  |  |
| CCCC(CCCCCCCF)C(=O)[O-].[Na+] (centres unmarked) [Example 7(2)] | 730.0 ± 226.4 pA |  |  |  |
| CCCC(CCC1CCCCC1)C(=O)[O-].[Na+] (centres unmarked) [Example 7(4)] | 163.0 ± 60.4 pA |  |  |  |
| CCCC(CCCCc1ccccc1)C(=O)[O-].[Na+] (centres unmarked) [Example 7(8)] |  | 59.0 ± 20.6 pA |  |  |
| CCCC(CCCOc1ccccc1)C(=O)[O-].[Na+] (centres unmarked) [Example 7(9)] | 512.1 ± 233.1 pA |  | 226.3 ± 60.5 pA |  |
| CCCC(CCCCOC)C(=O)[O-].[Na+] (centres unmarked) [Example 7(14)] |  |  | 285.7 ± 103.6 pA |  |
| CCCC(CCC(C)C)C(=O)[O-].[Na+] (centres unmarked) [Example 7(16)] | 105 ± 65 pA | 417 ± 140 pA |  |  |
| CCCC(CCCCC(C)C)C(=O)[O-].[Na+] (centres unmarked) [Example 7(17)] | 259.0 ± 83.7 pA |  |  |  |
| CCCC(CCCC(C)C)C(=O)[O-].[Na+] (centres unmarked) [Example 7(18)] |  | 658.6 ± 440.7 pA |  |  |
| CCCC(C(=O)[O-])C1CCCCC1.[Na+] (centres unmarked) [Example 7(26)] |  |  | 344.7 ± 342.5 pA |  |
| C=CCC(CCC)C(=O)[O-].[Na+] (centres unmarked) [Example 7(28)] |  |  | 122 ± 44 pA |  |
| CCCCCC(CCC)C(=O)[O-].[Na+] (centres unmarked) [Example 7(30)] | 233 ± 90 pA | 675 ± 201 pA |  |  |
| CCCCC(CCC)C(=O)[O-].[Na+] (centres unmarked) [Example 7(31)] | 51 ± 28 pA | 565 ± 278 pA | 590 ± 180 pA |  |
| CCCCCCCCC(CCC)C(=O)[O-].[Na+] (centres unmarked) [Example 7(32)] |  |  |  | GABAA receptor responses (means ± S.E.) (GABAA receptor [1]; 0.1 mM): 48 ± 20 pA |
| CCCCCCC(CCC)C(=O)[O-].[Na+] (centres unmarked) [Example 7(33)] | 1260 ± 521 pA |  |  | GABAA receptor responses (means ± S.E.) (GABAA receptor [1]; 0.03 mM): 40 ± 23 pA; GABAA receptor responses (means ± S.E.) (GABAA receptor [1]; 0.1 mM): 237 ± 69 pA |
| CCCCCOC(CCC)C(=O)[O-].[Na+] (centres unmarked) [Example 7(37)] | 139 ± 52 pA |  | 595 ± 190 pA |  |
| CCCC(CCCCCF)C(=O)[O-].[Na+] (centres unmarked) [Example 7] | 213.1 ± 150.1 pA | 661.7 ± 306.3 pA |  |  |
| CCCC(Cl)(CCC)C(=O)OC [Example 9] |  |  | 467 ± 187 pA |  |
| CC/C=C(\CCC)C(=O)[O-].[Na+] [Example 13] |  |  | 171 ± 55 pA |  |
| CCCC(CCC)C(=O)[O-].[Na+] [VPA, sodium valproate] | 37 ± 26 pA | 193 ± 141 pA | 1263 ± 303 pA | conditional avoidance response, count (frequencies) [2]: 5.3±0.8; GABAA receptor responses (means ± S.E.) (GABAA receptor [3]; 0.3 mM): 254 ± 106 pA; GABAA receptor responses (means ± S.E.) (GABAA receptor [3]; 1.0 mM): 432 ± 98 pA; GABAA receptor responses (means ± S.E.) (GABAA receptor [3]; 3.0 mM): 1301 ± 156 pA; Survival rates (on 22 days) (neurons; control <10%): 60-70%^; dendrite generation in the neurons (neurons; not observed in control): detected; Ratio of increase in GFAP contents (astrocytes; 0.3 mM): 30.6%; Ratio of increase in GFAP contents (astrocytes; 1.0 mM): 36.3%; Ratio of increase in GFAP contents (astrocytes; 3.0 mM): 44.3% |

From patent US7569608B2, “Pentanoic acid derivatives” (Ono Pharmaceutical Co., Ltd., priority 1993, dated 2009)
